From US11020398B2, “Amino-pyrrolopyrimidinone compounds and methods of use thereof” (ArQule, Inc., priority 2016, dated 2021)

Legend:
[1] = biological target: full-length activated BTK mutant C481S (Homo sapiens (Human), UniProt Q06187, C481S); test: AlphaScreen assay, BTK mutant C481S; format: biochemical; conditions: for inhibition at 10 µM: read-out: BTK-C481S % @ 10 uM, @ 10 uM
[2] = biological target: full-length activated BTK (wildtype) (Homo sapiens (Human), UniProt Q06187); test: AlphaScreen assay, wild-type BTK; format: biochemical; conditions: for inhibition at 10 µM: read-out: BTK % @ 10 uM, @ 10 uM
Chain of full-length activated BTK (wildtype) (Q06187 whole entry): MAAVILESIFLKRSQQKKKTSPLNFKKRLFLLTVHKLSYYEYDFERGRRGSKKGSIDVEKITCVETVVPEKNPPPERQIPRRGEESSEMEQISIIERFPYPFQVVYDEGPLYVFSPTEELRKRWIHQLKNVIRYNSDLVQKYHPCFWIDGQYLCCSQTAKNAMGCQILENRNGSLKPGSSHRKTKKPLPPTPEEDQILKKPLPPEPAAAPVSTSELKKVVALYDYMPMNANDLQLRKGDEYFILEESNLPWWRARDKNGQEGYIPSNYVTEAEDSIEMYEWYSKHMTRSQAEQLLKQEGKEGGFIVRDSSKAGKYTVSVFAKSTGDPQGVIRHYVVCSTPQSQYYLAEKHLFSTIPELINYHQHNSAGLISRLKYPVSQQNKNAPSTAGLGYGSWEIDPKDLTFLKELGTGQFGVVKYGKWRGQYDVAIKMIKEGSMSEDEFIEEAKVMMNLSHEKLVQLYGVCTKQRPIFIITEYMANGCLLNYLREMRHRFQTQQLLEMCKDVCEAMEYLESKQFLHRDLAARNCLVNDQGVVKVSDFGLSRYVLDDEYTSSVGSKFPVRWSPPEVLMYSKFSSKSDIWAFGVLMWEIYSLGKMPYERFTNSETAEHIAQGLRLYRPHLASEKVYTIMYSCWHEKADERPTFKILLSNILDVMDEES

Chain of full-length activated BTK mutant C481S (Q06187 whole entry C481S): as the sequence (Q06187 whole entry) above, with C481S counted along it

O=C(c1ccc(C(=O)N2CCOCC2)cc1)c1c[nH]c2ncnc(N[C@@H]3CC[C@@H](CO)OC3)c12 [Compound I-632, (4-(((3R,6S)-6-(hydroxymethyl)tetrahydro-2H-pyran-3-yl)amino)-7H-pyrrolo[2,3-d]pyrimidin-5-yl)(4-(morpholine-4-carbonyl)phenyl) methanone]
inhibition at 10 µM [1]: 66% | inhibition at 10 µM [2]: 84%

COCCNC(=O)c1ccc(C(=O)c2c[nH]c3ncnc(N[C@@H]4CC[C@@H](CO)OC4)c23)cc1 [Compound I-636, 4-(4-(((3R,6S)-6-(hydroxymethyl)tetrahydro-2H-pyran-3-yl)amino)-7H-pyrrolo[2,3-d]pyrimidine-5-carbonyl)-N-(2-methoxyethyl)benzamide]
inhibition at 10 µM [1]: 41% | inhibition at 10 µM [2]: 62%

O=C(NCc1ccccc1)c1ccc(C(=O)c2c[nH]c3ncnc(N[C@@H]4CC[C@@H](CO)OC4)c23)c(Cl)c1 [Compound I-618, N-benzyl-3-chloro-4-(4-(((3R,6S)-6-(hydroxymethyl)tetrahydro-2H-pyran-3-yl)amino)-7H-pyrrolo[2,3-d]pyrimidine-5-carbonyl)benzamide]
IC50 [1]: 399 nM | IC50 [2]: 87.4 nM

O=C(NC1CC2(COC2)C1)c1ccc(C(=O)c2c[nH]c3ncnc(N[C@@H]4CC[C@@H](CO)OC4)c23)c(Cl)c1 [Compound I-621, 3-chloro-4-(4-(((3R,6S)-6-(hydroxymethyl)tetrahydro-2H-pyran-3-yl)amino)-7H-pyrrolo[2,3-d]pyrimidine-5-carbonyl)-N-(2-oxaspiro[3.3]heptan-6-yl)benzamide]
inhibition at 10 µM [1]: 85% | IC50 [2]: 571 nM

O=C(c1cccc(NC(=O)C2CCOCC2)c1)c1c[nH]c2ncnc(N[C@@H]3CC[C@@H](CO)OC3)c12 [Compound I-644, N-(3-(4-(((3R,6S)-6-(hydroxymethyl)tetrahydro-2H-pyran-3-yl)amino)-7H-pyrrolo[2,3-d]pyrimidine-5-carbonyl)phenyl)tetrahydro-2H-pyran-4-carboxamide]
inhibition at 10 µM [1]: 44% | inhibition at 10 µM [2]: 58%

COc1ccccc1C(=O)NCc1ccc(C(=O)c2c[nH]c3ncnc(N[C@@H]4CC[C@@H](CO)OC4)c23)cc1 [Compound I-652, N-(4-(4-(((3R,6S)-6-(hydroxymethyl)tetrahydro-2H-pyran-3-yl)amino)-7H-pyrrolo[2,3-d]pyrimidine-5-carbonyl)benzyl)-2-methoxybenzamide]
IC50 [1]: 497 nM | IC50 [2]: 177 nM

CS(=O)(=O)N1CC(Nc2ncnc3[nH]cc(C(=O)c4ccc(Oc5ccccc5)cc4Cl)c23)CCC1CO (racemic) [Compound I-653, (racemic)-(2-chloro-4-phenoxyphenyl)(4-((6-(hydroxymethyl)-1-(methylsulfonyl)piperidin-3-yl)amino)-7H-pyrrolo[2,3-d]pyrimidin-5-yl)methanone]
IC50 [1]: 38.8 nM | IC50 [2]: 10 nM

O=C(Nc1cccnc1)c1ccc(C(=O)c2c[nH]c3ncnc(N[C@@H]4CC[C@@H](CO)OC4)c23)c(Cl)c1 [Compound I-256, 3-chloro-4-(4-(((3R,6S)-6-(hydroxymethyl)tetrahydro-2H-pyran-3-yl)amino)-7H-pyrrolo[2,3-d]pyrimidine-5-carbonyl)-N-(pyridin-3-yl)benzamide]
IC50 [1]: 317 nM | IC50 [2]: 156 nM

O=C(c1ccc(Oc2ccccc2)cc1Cl)c1c[nH]c2ncnc(NC[C@H]3CN[C@H](CO)C3)c12 [Compound I-369e, (2-chloro-4-phenoxyphenyl)(4-((((3R,5S)-5-(hydroxymethyl)pyrrolidin-3-yl)methyl)amino)-7H-pyrrolo[2,3-d]pyrimidin-5-yl)methanone]
IC50 [1]: 137 nM | IC50 [2]: 19.8 nM

O=C(c1ccc(N2CCCCC2)cc1Cl)c1c[nH]c2ncnc(N[C@@H]3CC[C@@H](CO)OC3)c12 [Compound I-646, (2-chloro-4-(piperidin-1-yl)phenyl)(4-(((3R,6S)-6-(hydroxymethyl)tetrahydro-2H-pyran-3-yl)amino)-7H-pyrrolo[2,3-d]pyrimidin-5-yl)methanone]
IC50 [1]: 781 nM | IC50 [2]: 380 nM

O=C(c1cccc(C(=O)N2CCOCC2)c1)c1c[nH]c2ncnc(N[C@@H]3CC[C@@H](CO)OC3)c12 [Compound I-635, (4-(((3R,6S)-6-(hydroxymethyl)tetrahydro-2H-pyran-3-yl)amino)-7H-pyrrolo[2,3-d]pyrimidin-5-yl)(3-(morpholine-4-carbonyl)phenyl) methanone]
inhibition at 10 µM [1]: 49% | inhibition at 10 µM [2]: 73%

CN1CCN(C(=O)c2ccc(Cl)c(C(=O)c3c[nH]c4ncnc(N[C@@H]5CC[C@@H](CO)OC5)c34)c2)CC1 [Compound I-622, (4-chloro-3-(4-(((3R,6S)-6-(hydroxymethyl)tetrahydro-2H-pyran-3-yl)amino)-7H-pyrrolo[2,3-d]pyrimidine-5-carbonyl)phenyl)(4-methylpiperazin-1-yl)methanone]
inhibition at 10 µM [1]: 62% | IC50 [2]: 847 nM

O=C(Nc1cccnc1)Nc1ccc(Cl)c(C(=O)c2c[nH]c3ncnc(N[C@@H]4CC[C@@H](CO)OC4)c23)c1 [Compound I-609, 1-(4-chloro-3-(4-(((3R,6S)-6-(hydroxymethyl)tetrahydro-2H-pyran-3-yl)amino)-7H-pyrrolo[2,3-d]pyrimidine-5-carbonyl)phenyl)-3-(pyridin-3-yl)urea]
IC50 [1]: 519 nM | IC50 [2]: 114 nM

O=C(Nc1cccc(C(=O)c2c[nH]c3ncnc(N[C@@H]4CC[C@@H](CO)OC4)c23)c1)c1ccccn1 [Compound I-643, N-(3-(4-(((3R,6S)-6-(hydroxymethyl)tetrahydro-2H-pyran-3-yl)amino)-7H-pyrrolo[2,3-d]pyrimidine-5-carbonyl)phenyl)picolinamide]
IC50 [1]: 150 nM | IC50 [2]: 269 nM

O=C(c1ccc(Oc2ccccc2)cc1Cl)c1c[nH]c2ncnc(NC[C@@H]3C[C@@H](CO)N(Cc4ccccc4)C3)c12 [Compound I-657, (4-((((3S,5S)-1-benzyl-5-(hydroxymethyl)pyrrolidin-3-yl)methyl)amino)-7H-pyrrolo[2,3-d]pyrimidin-5-yl)(2-chloro-4-phenoxyphenyl)methanone]
IC50 [1]: 832 nM | IC50 [2]: 236 nM

O=C(Cc1ccccc1)Nc1ccc(C(=O)c2c[nH]c3ncnc(N[C@@H]4CC[C@@H](CO)OC4)c23)c(Cl)c1 [Compound I-639, N-(3-chloro-4-(4-(((3R,6S)-6-(hydroxymethyl)tetrahydro-2H-pyran-3-yl)amino)-7H-pyrrolo[2,3-d]pyrimidine-5-carbonyl)phenyl)-2-phenylacetamide]
IC50 [1]: 25.6 nM | IC50 [2]: 14.2 nM

O=C(Nc1ccc(C(=O)c2c[nH]c3ncnc(N[C@@H]4CC[C@@H](CO)OC4)c23)c(Cl)c1)c1ccccc1 [Compound I-276, N-(3-chloro-4-(4-(((3R,6S)-6-(hydroxymethyl)tetrahydro-2H-pyran-3-yl)amino)-7H-pyrrolo[2,3-d]pyrimidine-5-carbonyl)phenyl)benzamide]
IC50 [1]: 58 nM | IC50 [2]: 17.6 nM

O=C(c1ccc(N2CCOCC2)cc1Cl)c1c[nH]c2ncnc(N[C@@H]3CC[C@@H](CO)OC3)c12 [Compound I-311i, (2-chloro-4-morpholinophenyl)(4-(((3R,6S)-6-(hydroxymethyl)tetrahydro-2H-pyran-3-yl)amino)-7H-pyrrolo[2,3-d]pyrimidin-5-yl)methanone]
inhibition at 10 µM [1]: 81% | IC50 [2]: 867 nM

COCCNC(=O)c1ccc(C(=O)c2c[nH]c3ncnc(N[C@@H]4CC[C@@H](CO)OC4)c23)c(Cl)c1 [Compound I-610, 3-chloro-4-(4-(((3R,6S)-6-(hydroxymethyl)tetrahydro-2H-pyran-3-yl)amino)-7H-pyrrolo[2,3-d]pyrimidine-5-carbonyl)-N-(2-methoxyethyl) benzamide]
IC50 [1]: 1150 nM | IC50 [2]: 491 nM

O=C(Nc1ccc(Cl)c(C(=O)c2c[nH]c3ncnc(N[C@@H]4CC[C@@H](CO)OC4)c23)c1)c1cc2c(cn1)CCCC2 [Compound I-606, N-(4-chloro-3-(4-(((3R,6S)-6-(hydroxymethyl)tetrahydro-2H-pyran-3-yl)amino)-7H-pyrrolo[2,3-d]pyrimidine-5-carbonyl)phenyl)-5,6,7,8-tetrahydroisoquinoline-3-carboxamide]
IC50 [1]: 55.9 nM | IC50 [2]: 0.98 nM

O=C(Nc1ccc(Cl)c(C(=O)c2c[nH]c3ncnc(N[C@@H]4CC[C@@H](CO)OC4)c23)c1)c1cncs1 [Compound I-604, N-(4-chloro-3-(4-(((3R,6S)-6-(hydroxymethyl)tetrahydro-2H-pyran-3-yl)amino)-7H-pyrrolo[2,3-d]pyrimidine-5-carbonyl)phenyl)thiazole-5-carboxamide]
IC50 [1]: 731 nM | IC50 [2]: 304 nM

O=C(c1cc(C(=O)N2CCc3ccccc3C2)ccc1Cl)c1c[nH]c2ncnc(N[C@@H]3CC[C@@H](CO)OC3)c12 [Compound I-625, (4-chloro-3-(4-(((3R,6S)-6-(hydroxymethyl)tetrahydro-2H-pyran-3-yl)amino)-7H-pyrrolo[2,3-d]pyrimidine-5-carbonyl)phenyl)(3,4-dihydroisoquinolin-2(1H)-yl)methanone]
IC50 [1]: 170 nM | IC50 [2]: 110 nM

Cn1cc(NC(=O)c2ccc(C(=O)c3c[nH]c4ncnc(N[C@@H]5CC[C@@H](CO)OC5)c34)cc2)cn1 [Compound I-633, 4-(4-(((3R,6S)-6-(hydroxymethyl)tetrahydro-2H-pyran-3-yl)amino)-7H-pyrrolo[2,3-d]pyrimidine-5-carbonyl)-N-(1-methyl-1H-pyrazol-4-yl)benzamide]
inhibition at 10 µM [1]: 50% | inhibition at 10 µM [2]: 77%

O=C(c1ccc(C(=O)N2CCc3ccccc3C2)cc1Cl)c1c[nH]c2ncnc(N[C@@H]3CC[C@@H](CO)OC3)c12 [Compound I-615, (2-chloro-4-(1,2,3,4-tetrahydroisoquinoline-2-carbonyl)phenyl)(4-(((3R,6S)-6-(hydroxymethyl)tetrahydro-2H-pyran-3-yl)amino)-7H-pyrrolo[2,3-d]pyrimidin-5-yl)methanone]
IC50 [1]: 34.1 nM | IC50 [2]: 86.4 nM
